These results are taken from PMC5331433, “Ustiloxin G, a New Cyclopeptide Mycotoxin from Rice False Smut Balls” (Toxins, 2017).

For assay [1], the system named is rice (Oryza sativa) seeds, germ. Briefly: Inhibition of germ elongation of rice seeds. As to conditions: 48 h, 25 °C, dark, mean of triplicate ± SD. Here is the method: (§1) Phytotoxicity of the compounds was evaluated by their inhibitory activities on the radicle and germ elongation of rice (Oryza sativa) seeds. Two varieties (Lijiang and Zhonghua 11) of the seeds, which were obtained from Prof. Zejian Guo (Department of Plant Pathology and collected in 2015, China Agricultural University) were used.
(§2) The bioassay was performed using the method described previously with some modifications. Briefly, five 3-day germinated rice seeds of each rice variety were sown onto each well of a 24-well plate, containing 200 μL of working solution. For preparing working solution, 1 mg of each purified compound was dissolved in 1 mL of ultrapure water to obtain the stock solution (1 mg/mL), which was further diluted to a series of concentrations (200, 100, 50, 20, and 10 μg/mL) with ultrapure water. The ultrapure water was used as the negative control, and glyphosate (N-(phosphonomethyl)glycine) at the same concentrations as the positive control. Plates were incubated in a moist chamber at 25 °C in the dark. The length of each radicle or germ was measured after treatment for 48 h. The inhibition of radicle or germ elongation was calculated as follows: Inhibition (%) = [(Lc − Lt)/Lc] × 100, where Lc is the radicle or germ length of the control group, and Lt is the length of the treated group.
(§3) All experiments were performed with three replicates, and the results were represented by their mean values and the standard deviations (SD). The data were carried out using analysis of variance (one-way ANOVA) to detect significant differences by PROC ANOVA of SAS version 8.2.

Assay [2] relates to rice (Oryza sativa) seeds, radicle. Briefly: Inhibition of radicle elongation of rice seeds. As to conditions: 48 h, 25 °C, dark, mean of triplicate ± SD. As to the method:
as §1, §2, §3

A further assay has as its system HepG2. Nature of the assay: Cytotoxicity, MTT assay, HepG2. The assay is classed as cell-based, human. The conditions noted are these: liver hepatocellular carcinoma cells, 24 h treatment, absorbance 570 nm, three replicates. Here is the method: (§4) Cytotoxicity of the compounds were tested against human carcinoma cells using the microculture methyl-thiazolyl-tetrazolium (MTT) assay as described previously. Briefly, the cell lines were maintained in a humidified atmosphere containing 5% CO2 at 37 °C. For preparing working solution, 1 μmol of each purified ustiloxin was dissolved in 10 mL of ultrapure water to obtain the stock solution (100 μM), which was further diluted to a series of concentrations (50, 25, 12.5, 6.25, 3.125, 1, 0.1, 1 × 10^−2, 1 × 10^−3, 1 × 10^−4, 1 × 10^−5 μM) with ultrapure water. Normally, 200 μL of the cell suspensions (5 × 10^4 cells/mL) was plated in 96-well culture plates at 37 °C. After 12 h, 20 μL of working solution was added to each well respectively and cultured at 37 °C for 24 h. Then, MTT was dissolved in saline to 5 mg/mL, and 20 μL of this solution was added to each well. After 4 h, the medium was removed, and then 100 μL of DMSO was added to dissolve any formazan crystals formed. Absorbance was then determined at 570 nm. The cell lines of colon cancer cells (HCT-116), non-small-cell lung carcinoma cells (NCI-H1650), gastric cancer cells (BGC-823), and liver hepatocellular carcinoma cells (HepG2) were tested for all isolated compounds. In addition, lung adenocarcinoma cells (A549) were tested on ustiloxins A (2), B (3), and G (1), and melanoma cells (A375) were tested on ustiloxin G (1). Ultrapure water and taxol were used as the negative and positive controls, respectively. All experiments were performed with three replicates.
In general terms: Tetrazolium dyes change colour on reduction, which living cells bring about.

A further assay concerns BGC-823. Nature of the assay: Cytotoxicity, MTT assay, BGC-823. In kind it is cell-based, human. As to conditions: gastric cancer cells, 24 h treatment, absorbance 570 nm, three replicates. Here is the method:
as §4

The next assay relates to rice seedlings. Briefly: Abnormal swelling of roots and germs of rice seedlings. Further details: species or system Oryza sativa. As to conditions: observation in words; Figure 3B shows 200 µg/mL of ustiloxin G, variety Lijiang. Here is the method: as §2
Another assay has as its system HCT116. Nature of the assay: Cytotoxicity, MTT assay, HCT116. In kind it is cell-based, human. As to conditions: colon cancer cells, 24 h treatment, absorbance 570 nm, three replicates. Here is the method:
as §4

A further assay deals with NCI-H1650. Briefly: Cytotoxicity, MTT assay, NCI-H1650. In kind it is cell-based, human. The conditions noted are these: non-small-cell lung carcinoma cells, 24 h treatment, absorbance 570 nm, three replicates. As to the method:
as §4

Another assay has as its system A549. Briefly: Cytotoxicity, MTT assay, A549. The assay is classed as cell-based, human. The conditions noted are these: lung adenocarcinoma cells, 24 h treatment, absorbance 570 nm, three replicates. As to the method:
as §4

As for `O=C(O)CNCP(=O)(O)O` [Glyphosate, N-(phosphonomethyl)glycine, reference compound], the “Inhibition Ratio (%) Seed Germ Var. Lijiang” value in assay [1] (10 µg/mL) amounted to 20.99%; in assay [1] (20 µg/mL), 37.82 ± 4.05 e %; in assay [1] (50 µg/mL) it was 59.32 ± 5.06 c %; in assay [1] (100 µg/mL) it was 68.21%; in assay [1] (200 µg/mL) it was 71.36 ± 2.68 a %. The “Inhibition Ratio (%) Seed Germ Var. Zhonghua 11” value came out at 21.16% in assay [1] (10 µg/mL); 29.21% in assay [1] (20 µg/mL); 35.36% in assay [1] (50 µg/mL); 57.60 ± 3.44 a % in assay [1] (100 µg/mL); 58.93 ± 6.04 a % in assay [1] (200 µg/mL). The “Inhibition Ratio (%) Seed Radicle Var. Lijiang” value stood at 36.84 ± 2.91 g % in assay [2] (10 µg/mL); 62.91 ± 5.03 d % in assay [2] (20 µg/mL); 85.08% in assay [2] (50 µg/mL); 93.64 ± 2.66 a % in assay [2] (100 µg/mL); 95.61 ± 2.74 a % in assay [2] (200 µg/mL). Further, the “Inhibition Ratio (%) Seed Radicle Var. Zhonghua 11” value in assay [2] (10 µg/mL) turned out to be 28.24%; in assay [2] (20 µg/mL) it was 41.52 ± 5.20 e %; in assay [2] (50 µg/mL), 68.88 ± 3.85 c %; in assay [2] (100 µg/mL) it was 81.05 ± 2.04 b %; in assay [2] (200 µg/mL), 87.72%.

As for `CC[C@@]1(C)Oc2cc(c([S+]([O-])C[C@@H](O)C[C@H](N)C(=O)O)cc2O)[C@@H](O)[C@H](NC)C(=O)N[C@@H](C(C)C)C(=O)N[C@@H]1C(=O)NCC(=O)O` (stereo partly shown) [Ustiloxin A (2), ustiloxin A], the IC50 with HepG2 is more than 50 µM; in the assay on BGC-823, 2.66 µM; with HCT116, more than 50 µM; in the assay with NCI-H1650, more than 50 µM; in the assay on A549, 3.12 µM. Also, in the assay on rice seedlings, the “abnormal swelling of the roots and germs of rice seedlings” value was “abnormal swelling”. In addition, the “Inhibition Ratio (%) Seed Germ Var. Lijiang” value amounted to 11.38% in assay [1] (10 µg/mL); 18.00% in assay [1] (20 µg/mL); 39.01 ± 6.84 e % in assay [1] (50 µg/mL); 50.59 ± 6.36 d % in assay [1] (100 µg/mL); 60.27% in assay [1] (200 µg/mL). For the same compound, the “Inhibition Ratio (%) Seed Germ Var. Zhonghua 11” value was 13.25% in assay [1] (10 µg/mL); 26.59% in assay [1] (20 µg/mL); 42.04% in assay [1] (50 µg/mL); 45.47% in assay [1] (100 µg/mL); 52.33% in assay [1] (200 µg/mL). The “Inhibition Ratio (%) Seed Radicle Var. Lijiang” value in assay [2] (10 µg/mL) amounted to 17.83%; in assay [2] (20 µg/mL), 43.57 ± 0.61 f %; in assay [2] (50 µg/mL), 87.38 ± 0.79 b %; in assay [2] (100 µg/mL) it was 94.53 ± 0.36 a %; in assay [2] (200 µg/mL) it was 96.64 ± 0.36 a %. Moreover, the “Inhibition Ratio (%) Seed Radicle Var. Zhonghua 11” value in assay [2] (10 µg/mL) stood at 12.27 ± 6.71 l %; in assay [2] (20 µg/mL) it was 56.16 ± 2.30 d %; in assay [2] (50 µg/mL), 89.14 ± 4.38 a %; in assay [2] (100 µg/mL), 93.72 ± 0.54 a %; in assay [2] (200 µg/mL) it was 95.29 ± 1.63 a %.

Consider `CC[C@@]1(C)Oc2cc(ccc2O)[C@@H](O)[C@H](NC)C(=O)N[C@@H](C(C)C)C(=O)N[C@@H]1C(=O)NCC(=O)O` [Ustiloxin D (4), ustiloxin D], for which the IC50 in the assay with HepG2, with BGC-823, in the assay on HCT116 and in the assay on NCI-H1650 was more than 50 µM throughout. In addition, the “Inhibition Ratio (%) Seed Germ Var. Lijiang” value in assay [1] (10 µg/mL) was determined as 10.73%; in assay [1] (20 µg/mL), 11.67%; in assay [1] (50 µg/mL), 11.87%; in assay [1] (100 µg/mL) it was 19.92%; in assay [1] (200 µg/mL), 38.76 ± 5.68 e %. The “Inhibition Ratio (%) Seed Germ Var. Zhonghua 11” value in assay [1] (10 µg/mL) amounted to 10.98%; in assay [1] (20 µg/mL), 12.28%; in assay [1] (50 µg/mL), 16.19%; in assay [1] (100 µg/mL), 25.48%; in assay [1] (200 µg/mL), 31.86%. Also, the “Inhibition Ratio (%) Seed Radicle Var. Lijiang” value in assay [2] (10 µg/mL) is on record as 4.43 ± 5.47 l %; in assay [2] (20 µg/mL), 5.42 ± 3.45 l %; in assay [2] (50 µg/mL), 11.89%; in assay [2] (100 µg/mL), 79.92 ± 6.26 c %; in assay [2] (200 µg/mL) it was 94.92 ± 0.79 a %. Further, the “Inhibition Ratio (%) Seed Radicle Var. Zhonghua 11” value in assay [2] (10 µg/mL) turned out to be 13.55%; in assay [2] (20 µg/mL), 23.31%; in assay [2] (50 µg/mL), 41.47 ± 4.88 e %; in assay [2] (100 µg/mL), 90.79 ± 0.94 a %; in assay [2] (200 µg/mL) it was 93.90 ± 2.11 a %.

For `CC[C@@]1(C)Oc2cc(ccc2O)[C@@H](O)[C@H](NC)C(=O)N[C@@H](C)C(=O)N[C@@H]1C(=O)NCC(=O)O` [Ustiloxin F (5), ustiloxin F], the half-inhibitory concentration (IC50) in the assay on HepG2, in the assay with BGC-823, with HCT116 and with NCI-H1650 was more than 50 µM throughout. The “Inhibition Ratio (%) Seed Germ Var. Lijiang” value in assay [1] (10 µg/mL) is on record as 7.07%; in assay [1] (20 µg/mL), 7.90 ± 4.3 k1%; in assay [1] (50 µg/mL) it was 9.14%; in assay [1] (100 µg/mL) it was 15.16%; in assay [1] (200 µg/mL) it was 24.57%. Also, the “Inhibition Ratio (%) Seed Germ Var. Zhonghua 11” value in assay [1] (10 µg/mL) was determined as 1.89 ± 4.86 p %; in assay [1] (20 µg/mL) it was 9.36%; in assay [1] (50 µg/mL), 14.97%; in assay [1] (100 µg/mL), 17.77%; in assay [1] (200 µg/mL) it was 18.71%. Besides, the “Inhibition Ratio (%) Seed Radicle Var. Lijiang” value in assay [2] (10 µg/mL) is on record as 5.07 ± 4.95 l %; in assay [2] (20 µg/mL), 8.97%; in assay [2] (50 µg/mL), 22.17%; in assay [2] (100 µg/mL), 26.72 ± 5.84 h %; in assay [2] (200 µg/mL) it was 38.25%. Moreover, the “Inhibition Ratio (%) Seed Radicle Var. Zhonghua 11” value in assay [2] (10 µg/mL) turned out to be 0.75%; in assay [2] (20 µg/mL) it was 9.59 ± 3.80 l %; in assay [2] (50 µg/mL) it was 16.51%; in assay [2] (100 µg/mL), 23.78%; in assay [2] (200 µg/mL), 36.83%.

As a reminder, the IC50 is the concentration that inhibits the measured activity by half. High values mean lower potency, low ones higher potency.
